Reference: patent US5677297A, “Benzazepine-, benzoxazepine- and benzothiazepine-n-acetic acid derivatives, process for their preparation and pharmaceutical compositions containing them” (Solvay Pharmaceuticals GmbH, priority 1995, dated 1997)

Biological target: neutral endopeptidase (NEP), purified NEP (E.C.3.4.24.11) (Homo sapiens, UniProt P08473)
Assay: In vitro investigation of the NEP-inhibitory effect (hydrolytic degradation of met-enkephalin)
Type: biochemical
Settings: substrate met-enkephalin, 37° C., pH 7.4
Method: 2. In vitro investigation of the NEP-inhibitory effect of the substances and determination of the affinity of the substance molecules for the enzyme molecule. […] The Ki (inhibitor constant) of each substance was determined as a measure of its inhibitory activity. The Ki of a test substance with enzyme-inhibiting activity is the dissociation constant for the enzyme/test substance complex or the (enzyme/substrate)--test substance complex and has units of concentration.
To carry out the test, respective 100 μl samples of various incubation solutions containing 10 ng of purified NEP (E.C.3.4.24.11) and in each case different amounts of test substance and of substrate (met-enkephalin)and 50 mM tris buffer (=tris(hydroxymethyl)aminomethane/HCl, pH 7.4) were prepared.
For each test substance, 24 different incubation solutions were prepared with 3 different test substance concentrations respectively combined with met-enkephalin contents of 2, 5, 7, 10, 12, 15, 40 and 100 μm.
In each test, two types of control incubation solutions were also processed, on the one hand enzyme controls which contain no test substance, and on the other hand substrate controls which contain neither enzyme nor test substance.
The incubation solutions were incubated in a shaking water bath at 37° C. for 45 minutes. The enzyme reaction was started after 15 minutes by adding the substrate (metenkephalin) and was stopped at the end of the incubation time by heating at 95° C. for 5 minutes. The stopped incubation solution was then centrifuged at 12,000×g for 3 minutes, and the concentrations of unreacted substrate and of hydrolysis products formed by the enzymatic reaction were determined in the supernatant. For this purpose, samples of each of the respective supernatants were fractionated by HPLC (high-pressure liquid chromatography) on hydrophobized silica gel, and the products of the enzymatic reaction and unreacted substrate were determined by photometry at a wavelength of 205 nm. The HPLC separation was carried out using a column (4.6×250 mm) which contains Encapharm™ 100 RP18 having an average particle size of 5 μm as reversed phase separation material. The solvent flow rate was 1.4 ml/min, and the column was warmed to 40° C. Mobile phase A was 5 mM H3 PO4, pH 2.5, and mobile phase B was acetonitrile +1% 5 mM H3 PO4, pH 2.5.
The Ki for each test substance was calculated in a known manner from the concentrations of hydrolysis products and unreacted substrate measured in the various samples. […] The example numbers indicated in Table B refer to the following preparation examples.

Sequence of neutral endopeptidase (NEP), purified NEP (E.C.3.4.24.11) (P08473 whole entry): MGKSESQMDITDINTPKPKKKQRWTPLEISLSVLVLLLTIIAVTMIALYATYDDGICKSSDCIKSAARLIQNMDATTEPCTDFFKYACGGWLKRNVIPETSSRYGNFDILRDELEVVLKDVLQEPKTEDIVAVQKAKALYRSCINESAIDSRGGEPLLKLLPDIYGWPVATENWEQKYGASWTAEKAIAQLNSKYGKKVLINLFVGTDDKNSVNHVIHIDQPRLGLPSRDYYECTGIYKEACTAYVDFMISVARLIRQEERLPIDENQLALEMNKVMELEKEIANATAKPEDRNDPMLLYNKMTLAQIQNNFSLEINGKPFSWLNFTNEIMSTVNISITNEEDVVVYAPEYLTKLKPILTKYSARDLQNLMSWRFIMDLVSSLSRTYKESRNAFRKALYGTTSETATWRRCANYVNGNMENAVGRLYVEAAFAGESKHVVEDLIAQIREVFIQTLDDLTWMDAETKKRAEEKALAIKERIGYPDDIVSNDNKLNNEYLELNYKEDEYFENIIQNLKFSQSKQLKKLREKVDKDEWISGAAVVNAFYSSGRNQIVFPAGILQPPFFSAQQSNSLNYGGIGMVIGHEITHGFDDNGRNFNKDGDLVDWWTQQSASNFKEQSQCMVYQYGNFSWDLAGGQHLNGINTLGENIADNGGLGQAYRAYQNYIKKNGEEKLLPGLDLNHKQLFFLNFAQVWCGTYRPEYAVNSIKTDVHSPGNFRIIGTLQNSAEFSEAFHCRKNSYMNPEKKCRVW

O=C(O)CN1C(=O)[C@@H](NC(=O)C2(C[C@@H](CCc3ccccc3)C(=O)O)CCCC2)CCc2ccccc21 [Example 8, (3S,2'R)-3-[1-(2'-Carboxy-4'-phenylbutyl)cyclopentane-1-carbonylamino]-2,3,4,5-tetrahydro-2-oxo-1H-1-benzazepine-1-acetic acid]
Ki: 0.4 nM
